# Laboratory results published in US8563254B2, “Biomarkers of tumor pharmacodynamic response” (Novartis AG, priority 2009, dated 2013).
# Tested on: A375 tumor-bearing mice
# Assay: Serum IL-8 / mouse KC in A375 mouse xenograft model
# Format: in vivo
# Design: drop of serum IL-8 levels / time at which serum IL-8 recovered to pre-treatment level: dose or concentration left out as unconfirmed
# Experimental: The in vivo study was carried out in strict accordance with Swiss law for animal protection and was approved by the Swiss Cantonal Veterinary Office of Basel-Stadt. GTL-16 (4×10^6) and A375 cells (5×10^6) were inoculated subcutaneously in the right flank in 200 μl Hanks' balanced salt solution (HBSS) or PBS, respectively. Invasive procedures were performed under Forene anesthesia. All experiments were performed in female Harlan HsdNpa: Athymic Nude-nu mice (Laboratory Animal Services, Novartis Pharma AG, Basel). The animals were kept under optimized hygienic conditions with 12 hr dark, 12 hr light conditions. The animals were fed food and water ad libitum. […] Mice in the control group were injected with the vehicle (D5W). Serum was isolated and tumors dissected over the time course 0-168 hr. Tumors were cut in two halves. One half was paraffin embedded and the other snap frozen, and stored at −80° C.
# Human IL-8 levels in cell culture supernatants treated with NVP-AUY922 were initially assessed as part of a multiplexed bead-based cytokine panel (hu 27-plex panel I, Bio-rad Laboratories, Hercules, Calif., USA) with a BioPlex Suspension Array System (Bio-rad). Human IL-8 and mouse KC levels in serum derived from GTL-16 and A375 tumor-bearing mice treated with NVP-AUY922 were measured by single-plex cytokine bead-based assay (Milliplex, Millipore, Billerica, Mass., USA). The BioPlex system uses a liquid suspension array of beads. The beads align in a single file through a flow cell to the detector, where a red classification laser at a wavelength of 635 nm and a green reporter laser at a wavelength of 532 nm are used to identify each bead's spectral address and associated reporter signal, respectively.
structure (smiles),measurement,setting,value
"CCNC(=O)c1noc(-c2cc(C(C)C)c(O)cc2O)c1-c1ccc(CN2CCOCC2)cc1 [NVP-AUY922, 5-(2,4-Dihydroxy-5-isopropyl-phenyl)-4-(4-morhpolin-4-ylmethyl-phenyl)-isoxazole-3-carboxylic acid ethylamide]",time at which serum IL-8 recovered to pre-treatment level,,168 h
same,drop of serum IL-8 levels,48 hr post-treatment,approximately 40%
same,"murine IL-8 levels, measured indirectly as mu KC",serum,unchanged
